Earlier results on one compound are cited in patent publication US20050197398A1, “Therapeutic agent for hepatic disease” (AJINOMOTO CO., INC, priority 2002, published 2005).

Each structure is given as a SMILES string.

Data set [1] has as its system D-galactosamine-induced liver failure rat model.
Data set [2] has as its system rat primary culture hepatocytes. As to conditions: D-galactosamine loading.

On to `C[C@H](N)C(=O)O` [alanine], for which the liver failure entry in data set [1] is on record as “improves liver failure”. Moreover, in data set [1] (ATP becomes lower in liver failure), the “level of ATP” value is “raises the level of ATP”. The “lactic dehydrogenase extracellular overflow” value in data set [2] was “suppress an increase of lactic dehydrogenase extracellular overflow”.
